Measurements published in patent publication US20080207693A1, “Mitotic Kinesin Inhibitors” (priority 2005, published 2008).
pIC50: −log10 of the molar value.

Target: T1, human KSP motor domain (KSP(367H)) (Homo sapiens, UniProt P52732)
T1 construct: were used to amplify the motor domain and the neck linker region; made in house; host or cells: E. coli BL21 (DE3), vector pRSETa
T1 sequence (P52732 18-359 limits assumed): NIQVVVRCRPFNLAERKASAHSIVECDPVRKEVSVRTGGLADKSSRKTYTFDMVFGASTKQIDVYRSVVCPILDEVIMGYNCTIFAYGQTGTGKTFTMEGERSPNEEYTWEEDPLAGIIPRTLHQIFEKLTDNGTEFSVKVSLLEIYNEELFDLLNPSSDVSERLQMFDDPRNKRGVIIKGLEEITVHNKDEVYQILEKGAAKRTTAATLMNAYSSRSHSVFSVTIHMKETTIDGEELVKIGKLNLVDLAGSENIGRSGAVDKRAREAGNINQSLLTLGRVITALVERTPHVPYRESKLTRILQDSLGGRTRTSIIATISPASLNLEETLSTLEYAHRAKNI
Assay: Kinesin ATPase in vitro assay
Format: biochemical
Details: KSP motor domain with microtubules, 1 mM ATP, 23° C.; free phosphate by quinaldine red/ammonium molybdate
Excerpt: I. Kinesin ATPase In Vitro Assay
Cloning and Expression of Human Poly-Histidine Tagged KSP Motor Domain (KSP(367H))
Plasmids for the expression of the human KSP motor domain construct were cloned by PCR using a pBluescript full length human KSP construct (Blangy et al., Cell, vol. 83, pp 1159-1169, 1995) as a template. The N-terminal primer 5′-[…] (SEQ. ID. NO.: 1) and the C-terminal primer 5′-[…] […] (SEQ. ID. NO.: 2) were used to amplify the motor domain and the neck linker region. The PCR products were digested with AseI and XhoI, ligated into the NdeI/XhoI digestion product of pRSETa (Invitrogen) and transformed into E. coli BL21 (DE3).
Cells were grown at 37° C. to an OD600 of 0.5. […]
The kinesin motor domain is incubated with microtubules, 1 mM ATP (1:1 MgCl2: Na-ATP), and compound at 23° C. in buffer containing 80 mM K-HEPES (pH 7.0), 1 mM EGTA, 1 mM DTT, 1 mM MgCl2, and 50 mM KCl. […] Free phosphate from the ATP hydrolysis reaction is measured via a quinaldine red/ammonium molybdate assay by adding 150 μl of quench C buffer containing a 2:1 ratio of quench A:quench B. Quench A contains 0.1 mg/ml quinaldine red and 0.14% polyvinyl alcohol; quench B contains 12.3 mM ammonium molybdate tetrahydrate in 1.15 M sulfuric acid. The reaction is incubated for 10 minutes at 23° C., and the absorbance of the phospho-molybdate complex is measured at […].

## CN(C(=O)N1CC(c2cc(F)ccc2F)=C[C@@]1(CO)c1ccccc1)[C@H]1CCN(CCC[Si](C)(C)C)C[C@H]1F [Compound 11-1, (2S)-4-(2,5-difluorophenyl)-N-{(3R,4S)-3-fluoro-1-[3-(trimethylsilyl)propyl]piperidin-4-yl}-2-(hydroxymethyl)-N-methyl-2-phenyl-2,5-dihydro-1H-pyrrole-1-carboxamide]
  pIC50: ≥ 4.30
